According to the NIST ThermoML archive (doi:10.1016/j.jct.2016.10.040):
± gives the expanded uncertainty stated by the source.

Legend:
[1] = Crystal; DTA
[2] = Molar enthalpy of transition or fusion; details: Crystal; DSC

O=Cc1cccc([N+](=O)[O-])c1 [3-nitrobenzaldehyde]
Normal melting temperature [1]: 55.07 ± 1.1 °C
Molar enthalpy of transition or fusion [2]: 4.76 ± 0.217 kcal/mol
